The target in one data set is T1, recombinant human sEH (Homo sapiens, UniProt P34913).
T1 construct: purchased Cayman Chemical 10011669
T1 sequence (P34913 1-555): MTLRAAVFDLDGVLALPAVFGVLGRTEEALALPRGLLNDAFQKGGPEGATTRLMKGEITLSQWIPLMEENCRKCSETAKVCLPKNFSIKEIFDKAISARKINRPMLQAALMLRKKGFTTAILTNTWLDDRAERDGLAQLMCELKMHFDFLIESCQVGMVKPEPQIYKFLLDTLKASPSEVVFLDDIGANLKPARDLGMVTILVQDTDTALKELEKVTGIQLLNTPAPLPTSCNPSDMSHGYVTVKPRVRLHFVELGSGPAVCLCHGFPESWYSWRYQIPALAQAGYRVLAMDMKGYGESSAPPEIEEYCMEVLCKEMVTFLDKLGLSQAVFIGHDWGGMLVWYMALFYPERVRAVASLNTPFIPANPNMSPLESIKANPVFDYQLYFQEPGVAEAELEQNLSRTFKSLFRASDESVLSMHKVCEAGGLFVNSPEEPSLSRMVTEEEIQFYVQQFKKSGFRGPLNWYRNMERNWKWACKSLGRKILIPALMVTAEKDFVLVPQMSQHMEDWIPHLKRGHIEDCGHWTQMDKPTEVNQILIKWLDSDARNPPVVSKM
Put plainly: In vitro determination of sEH inhibition activity (fluorescent assay, PHOME substrate). It is filed as biochemical. The settings on record: mean ± Standard Error, min. three replicates, read-out: IC50 (nM) ± SE, sEH inhibition activity. The protocol:
3-(Phenyl-oxiranyl)-acetic acid cyano-(6-methoxy-naphthalen-2-yl)-methyl ester (PHOME; from Cayman Chemical, item number 10009134; CAS 1028430-42-3); cf. N. M. Wolf et al., Anal. Biochem. 2006, vol. 355, pp. 71-80.
Solutions: • Assay buffer: Bis/Tris HCl 25 mM pH 7.0 containing 0.1 mg/mL of bovine serum albumin (BSA). • PHOME at 200 μM in DMSO. • Solution of recombinant human sEH (Cayman Chemical, item number 10011669), diluted with assay buffer. • Inhibitors dissolved in DMSO at appropriated concentrations.
In a black 96-well plate (Greiner Bio-One, item number 655900), fill the background wells with 90 μL and the positive control and inhibitor wells with 85 μL of assay buffer. Add 5 μL of DMSO to background and positive control wells, and then add 5 μL of inhibitor solution in inhibitor wells. Add 5 μL of the solution of hsEH to the positive control and inhibitor wells and mix several time. Prepare a 1/21 dilution of the solution of PHOME with assay buffer according to final volume required, and then add 105 μL of each well. Shake carefully the plate for 10 seconds and incubate for 5 minutes at room temperature. […] Results were obtained by regression analysis from at least three data points in a linear region of the curve. IC50 values are average of minimum three independent replicates.

A short description of data set [1]: Determination of water solubility (nephelometry). It is filed as physicochemical. Conditions: aqueous with cosolvent or surfactant or cyclodextrin, kinetic from dmso stock; 5% DMSO: 95% PBS buffer, 37° C., read after 2 and 4 h; read-out: S (solubility).
Data set [2] is described as follows: Determination of cytotoxicity in THLE-2 cells (ATP viability). Conditions: human. It is filed as cell-based. The protocol: Cytotoxic effects of assayed compounds were tested using the immortalized human liver cell line THLE-2 (ATCC CRL-2706). Cells were cultured in BEGM medium (Clonetics # CC-4175) containing all the supplements kit except additional EGF and G418. Medium was completed by adding 0.7 μg/mL phosphoethanolamine, 0.5 ng/mL epidermal growth factor, antibiotics (penicillin and streptomycin) and 10% fetal bovine serum (FBS).
Cells were plated in 96-well black microplates at 10,000 cells/well density and were incubated at 37° C. (5% CO2, 95% humidity) for 24 h to allow the cells to adhere and form a monolayer. Test compounds were solubilized in 100% DMSO at a concentration curve way and then diluted with cell culture medium containing 10% DMSO. The final concentrations of the test compounds (1% DMSO) ranged from 0-100 μM in a final volume of 200 μL. Microplates were maintained at 37° C. (5% CO2, 95% humidity) during 3 days. Following this 72 h exposure to test compounds, cell viability in each well was determined by measuring the concentration of cellular adenosine triphosphate (ATP) using the ATP1Step Kit as described by the manufacturer (Perkin-Elmer). In a typical procedure, 50 μL of cell reagent is added to all wells of each test plate followed by incubation for 10 min at room temperature on an orbital shaker. ATP concentration was determined by reading chemical luminescence using the Envision plate reader (PerkinElmer). The percentage of viable cells relative to the non-drug treated controls was determined for each well and LC50 values were calculated as concentrations projected to kill 50% of the cells following a 72 h exposure, an average of minimum two independent replicates.

A short description of data set [3]: Parallel artificial membrane permeation assay for blood-brain barrier (PAMPA-BBB). It is filed as in vitro ADME, porcine. Conditions: PBS:EtOH (70:30). The protocol:
The in vitro permeability (Pe) of the test compounds through lipid extract of porcine brain membrane was determined. Assayed compounds were tested using a mixture of PBS:EtOH (70:30). […] From this equation and taking into account the limits established by Di et al. for BBB permeation, the ranges of permeability were established, as follows.
On the technique in general: In PAMPA a lipid-coated filter parts donor from acceptor wells.

The next data set has as its target T2, CYP1A2 (Homo sapiens, UniProt P05177).
T2 sequence (P05177 1-516): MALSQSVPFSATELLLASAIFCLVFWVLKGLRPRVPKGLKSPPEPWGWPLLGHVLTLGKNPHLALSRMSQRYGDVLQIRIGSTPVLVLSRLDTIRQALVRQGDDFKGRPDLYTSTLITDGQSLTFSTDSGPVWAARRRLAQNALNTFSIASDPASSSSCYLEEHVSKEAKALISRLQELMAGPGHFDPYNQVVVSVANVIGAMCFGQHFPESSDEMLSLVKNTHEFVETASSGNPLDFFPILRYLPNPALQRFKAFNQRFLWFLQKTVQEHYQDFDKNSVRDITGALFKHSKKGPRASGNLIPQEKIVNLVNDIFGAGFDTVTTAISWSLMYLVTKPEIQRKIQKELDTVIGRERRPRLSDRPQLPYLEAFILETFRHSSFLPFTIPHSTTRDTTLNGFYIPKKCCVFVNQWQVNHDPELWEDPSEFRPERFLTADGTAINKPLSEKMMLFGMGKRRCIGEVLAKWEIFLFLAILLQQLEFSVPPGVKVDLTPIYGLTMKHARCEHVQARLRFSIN
Description: Inhibition of human cytochrome P450 CYP1A2. It is filed as in vitro ADME. Conditions: human cytochrome P450 enzyme. The text has this: (§1) The epoxidation of arachidonic acid (AA) by selected cytochrome P450 epoxygenases generates epoxyeicosatrienoic acids (EETs). These EETs show anti-inflammatory, antihypertensive, analgesic, angiogenic, and antiatherosclerotic effects in rodents and humans. sEH converts EETs to their corresponding dihydroxyeicosatrienoic acids (DHETs), whereby the biological effects of EETs are diminished, eliminated, or altered. Among the P450 enzymes, it is known that CYP2C19 and CYP1A2 have the highest formation rate of EETs from AA (cf. A. A. El-Sherbeni et al. “Repurposing resveratrol and fluconazole to modulate human cytrochrome P450-mediated arachidonic acid metabolites”, Molecular Pharmaceutics 2016, vol. 13, pp. 1278-1288). For this reason, a highly desirable aspect of any new sEH inhibitor is selectivity in front of CYP2C19 and CYP1A2.

The target of another data set is CYP2C19 (Homo sapiens, UniProt P33261). Description: Inhibition of human cytochrome P450 CYP2C19. In kind it is in vitro ADME. Conditions: human cytochrome P450 enzyme.
CYP2C19, sequence (P33261 whole entry): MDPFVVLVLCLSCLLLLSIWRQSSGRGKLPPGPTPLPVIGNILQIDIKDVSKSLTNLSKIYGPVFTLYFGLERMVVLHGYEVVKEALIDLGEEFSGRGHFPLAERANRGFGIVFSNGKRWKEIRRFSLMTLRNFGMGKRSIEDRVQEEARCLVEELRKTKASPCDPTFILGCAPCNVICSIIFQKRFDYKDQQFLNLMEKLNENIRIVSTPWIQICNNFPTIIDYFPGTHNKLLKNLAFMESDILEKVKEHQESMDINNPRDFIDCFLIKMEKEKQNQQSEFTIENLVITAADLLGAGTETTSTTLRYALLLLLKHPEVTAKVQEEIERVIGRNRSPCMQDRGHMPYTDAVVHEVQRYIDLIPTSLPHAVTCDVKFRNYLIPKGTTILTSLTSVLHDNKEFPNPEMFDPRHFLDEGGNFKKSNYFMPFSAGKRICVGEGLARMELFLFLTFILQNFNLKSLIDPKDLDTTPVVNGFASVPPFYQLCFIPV
From the text: as §1

The next data set deals with T3, sEH in AR42j cells (Rattus norvegicus, UniProt P80299).
T3 sequence (P80299 1-554): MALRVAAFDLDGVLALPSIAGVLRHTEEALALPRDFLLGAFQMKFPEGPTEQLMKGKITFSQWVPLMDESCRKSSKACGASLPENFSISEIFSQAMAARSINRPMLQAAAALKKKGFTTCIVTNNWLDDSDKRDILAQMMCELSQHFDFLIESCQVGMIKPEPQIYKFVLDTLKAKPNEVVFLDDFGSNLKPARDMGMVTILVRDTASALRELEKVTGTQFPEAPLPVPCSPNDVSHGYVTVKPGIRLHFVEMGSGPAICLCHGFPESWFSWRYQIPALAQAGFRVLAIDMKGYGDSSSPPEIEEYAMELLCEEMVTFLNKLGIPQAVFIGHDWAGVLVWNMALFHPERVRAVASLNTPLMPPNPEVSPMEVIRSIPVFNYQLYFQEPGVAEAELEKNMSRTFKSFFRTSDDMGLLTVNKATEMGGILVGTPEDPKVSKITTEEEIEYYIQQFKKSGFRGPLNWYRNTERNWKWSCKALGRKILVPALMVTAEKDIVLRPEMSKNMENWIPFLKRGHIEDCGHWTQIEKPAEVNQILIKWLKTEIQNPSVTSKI
Description: In vitro determination of sEH inhibition activity in AR42j cells (cell-based fluorescent assay). The settings on record: AR-42J, read-out: % Inhn. ± SE (100 μM), sEH inhibition activity in cell culture.

Molecules are shown by their SMILES. Converted amounts (≈) assume the structure as drawn. Where two headings read alike, the source gives them in different places. A value given as a limit tells only on which side of the number the result lay.

Description for sEH in AR42j cells: Solutions Preparation: • Assay buffer 1×: add 10 mL of the CBA-Buffer (10×) to 90 mL of distilled water. • Lysis Buffer: add 50 μL of the CBA Digitonin Solution to 10 mL of Buffer Assay 1×. • Substrate Solution: dilute 10 μL of CBA sEH Substrate with 10 mL of Assay Buffer 1×. • Standards: preparation of 7 concentrations of CBA 6-methoxy-2-naphtalaldehyde from 0 until 2 M with Assay Buffer 1×. • sEH Positive Control: Prepare another stock A (1 μg/ml: 1 μL CBA sEH Positive Control+1 mL Assay Buffer 1×). From the already prepared stock A, prepare 250 μL of sEH (10 ng/mL): 2.5 μL sEH stock A+250 μL Assay Buffer 1×). • sEH Inhibitor AUDA: dilute 10 μL CBA sEH Inhibitor with 500 ml Assay Buffer 1×. • Inhibitors dissolved in DMSO at appropriated concentrations.
Seed cells in a 96-well plate at a density of (2×10^4)-(5×10^4) cells/well in 100 μL of culture medium with or without compounds to be tested. Incubation of the cells in a CO2 incubator at 37° C. for 48 hours. Aspirate the culture medium and add 200 μL of Assay Buffer 1× to each well. Centrifuge the plate at 800 rmp for 5 minutes. Aspirate the supernatant and add 100 μL of Lysis Buffer to each well. Incubate with gentle shaking on an orbital shaker for 30 minutes at room temperature. Centrifuge the plate at 3000 rpm for 20 minutes at 4° C. Transfer 90 μL of the supernatants to the 96-Well Solid Plate (black). Add 10 μL Assay Buffer 1× or 10 μL of the AUDA solution to appropriate wells. For positive control wells, add 100 μL of the 10 ng/mL sEH Positive Control to two wells. Add 200 μL of 6-methoxy-2-Naphthaldehyde Standards to corresponding wells of the black plate. Add 100 μL of the sEH Substrate Solution to each well, except the standards. Incubate the plate at 37° C. for 30 minutes. […] The intensity of fluorescence was used to analyze and calculate inhibition percentages, shown in the Table as average of minimum three independent replicates.

On to `CCC12CC3CC(C1)CC(NC(=O)Nc1ccc(F)c(F)c1F)(C3)O2` [Ic, 1-(3-ethyl-2-oxaadamantan-1-yl)-3-(2,3,4-trifluorophenyl)urea], for which, on recombinant human sEH, the IC50 (as a rule, the midpoint of a concentration-inhibition curve) is 8.1 ± 3.2 nM. Moreover, the solubility (usually the dissolved amount per volume that the medium holds) in data set [1] came out at 77 µM (≈ 27.3 µg/mL). The compound also had a CC50 at 72 h in data set [2] of over 100 µM. Further, in data set [3], the CNS prediction entry is “CNS+ (Compounds of high BBB permeation (CNS+): Pe (10^6 cm s^−1)>5.181)”.
Consider `CC12CC3CC(C1)CC(NC(=O)Nc1ccc(F)c(F)c1F)(C3)O2` [Ib, 1-(3-methyl-2-oxaadamantan-1-yl)-3-(2,3,4-trifluorophenyl)urea], for which, at recombinant human sEH, the IC50 came out at 21.3 ± 5.4 nM. Also, the solubility in data set [1] was 63 µM (≈ 21.4 µg/mL). Further, in data set [2], the CC50 at 72 h was over 100 µM. In addition, the CNS prediction entry in data set [3] is given as “CNS+ (Compounds of high BBB permeation (CNS+): Pe (10^6 cm s^−1)>5.181)”.
For `CC(=O)N1CCC(NC(=O)NC23CC4CC(CC(C4)O2)C3)CC1` [If, 1-(2-oxaadamantan-1-yl)-3-(1-acetylpiperidin-4-yl)urea], at recombinant human sEH, the IC50 was 19.8 ± 6.2 nM. Moreover, in data set [1], the solubility is over 100 µM. Besides, the CC50 at 72 h in data set [2] (THLE-2 cells, 72 h exposure, 0-100 μM, read-out: LC50 (μM), cytotoxicity) was over 100 µM. The inhibition at 1 µM on CYP1A2 and against CYP2C19 was at most 6% each time. Moreover, at sEH in AR42j cells, the inhibition (commonly the share of the control response that was lost under treatment) at 100 µM stood at 42.1 ± 5%.

The record behind these values is patent publication US20200079786A1, “ANALOGS OF […] AS SOLUBLE EPOXIDE HYDROLASE INHIBITORS” (UNIVERSITAT DE BARCELONA, priority 2015, published 2020).
